Measured values published in patent US20090181986A1, “SUBSTITUTED HETEROCYCLIC COMPOUNDS” (priority 2007, published 2009).

Tests used:
hERG potassium channel = hERG potassium channel (Homo sapiens, UniProt Q12809); assay: hERG screening assay (PatchXpress patch clamp, CHO cells)
Experimental: Compounds were screened to test their activity in blocking the hERG potassium channel. The hERG channel is heterologously expressed in a CHO (Chinese Hamster Ovary) cell line. Cells are maintained with standard tissue culture procedures and stable channel expression is maintained with 500 μg/ml G418 in the culture medium. Cells are harvested for testing on the PatchXpress automated patch clamp with Acctumax (Innovative Cell Technologies, San Diego, Calif.) to isolate single cells.
The following solutions are used for electrophysiological recordings. The external solution contains: 2 mM CaCl2; 2 mM MgCl2; 4 mM KCl; 150 mM NaCl; 10 mM Glucose; 10 mM HEPES (pH 7.4 with 1M NaOH, osmolarity).
hERG channels are activated when the voltage is stepped to +20 mV from the −80 mV holding potential (see FIG. 3). During a 5 second step at +20 mV, the channels activate and then largely inactivate, so the currents are relatively small. Upon returning to −50 mV from +20 mV, hERG currents transiently become much larger as inactivation is rapidly removed and then the channel closes. The first step to −50 mV for 300 ms is used as a baseline for measuring the peak amplitude during the step to −50 mV after channel activation. The peak current at −50 mV is measured both under control conditions and after addition of compound.
All compounds are prepared as 10 mM DMSO stocks in glass vials. Stock solutions are mixed by vigorous vortexing and sonication for about 2 minutes at room temperature. For testing, compounds are diluted in glass vials using an intermediate dilution step in pure DMSO and then further diluted to working concentrations in external solution. Dilutions are prepared no longer than 20 minutes before use.
After achieving the whole-cell configuration, cells are monitored for 90 seconds to assess stability and washed with external solution for 66 seconds. The voltage protocol described above is then applied to the cells every 12 seconds and throughout the whole procedure. Only cells with stable recording parameters and meeting specified health criteria are allowed to enter the compound addition procedure.
External solution containing 0.1% DMSO (vehicle) is applied to the cells first to establish the control peak current amplitude. After allowing the current to stabilize for 3 to 5 minutes, 1 μM and then 10 μM test compounds are applied. Each compound concentration is added 4 times and cells are kept in test solution until the effect of the compound reaches steady state or for a maximum of 12 minutes. […] Washout in the external solution compartment is performed until the recovery of the current reaches steady state. Data are analyzed using DataXpress, Clampfit (Molecular Devices, Inc., Sunnyvale) and Origin 7 (Originlab Corp.)

[1] = target: T1, human cardiac L-type calcium channels (hCav1.2, coexpressed with the beta 2 subunit) (Homo sapiens, UniProt Q13936); assay: L-type calcium channel patch clamp screening assay (ICaL, HEK293); type: cell-based; settings: hCav1.2 in HEK293, percentage of current inhibited at steady state; for ICaL Patch Clamp Assay 1 μM % blk: 1 μM test compound; for ICaL Patch Clamp Assay 10 μM % blk: 10 μM test compound
T1 construct: expressed in transfected cells
Experimental: Compounds are screened to test for block of human cardiac L-type calcium channels (hCav1.2, encoded by the human CACNA1C gene and coexpressed with the beta 2 subunit, encoded by the human CACNB2 gene) expressed in an HEK293 cell line. Stable transfectants were selected using antibiotic resistance genes incorporated into the expression plasmids and selection pressure is maintained with selection antibiotics added to the culture medium. Cells are cultured using standard tissue culture methods for HEK293 cells.
Cells are harvested for addition to a PatchXpress automated patch clamp system. The external solution contains: 137 mM NaCl; 4 mM KCl; 1.8 mM CaCl2; 1 mM MgCl2; […]; 10 mM Glucose (pH adjusted to 7.4 with NaOH). The internal solution contains: 130 mM Cs Aspartate; 5 mM MgCl2; 5 mM EGTA; 4 mM ATP; 0.1 mM GTP; 10 mM HEPES (pH adjusted to 7.2 with N-methyl-D-glucamine).
Onset of block and steady state block of hCav1.2 channels are monitored using a stimulus voltage pattern consisting of a depolarizing test pulse (duration, 200 ms; amplitude, 10 mV) at 10s intervals from a −80 mV holding potential (FIG. 5). Test compound concentrations (1 μM and 10 μM) are applied cumulatively in ascending order without washout between applications. Peak current is measured during the step to 10 mV. A saturating concentration of nifedipine (10 μM) is added at the end of each experiment to completely block hCav1.2 current and verify sensitivity to channel blockade. Leakage current is measured after nifedipine addition and digitally subtracted from the total membrane current record. Each compound is applied to naive cells and each concentration is applied four times for a total exposure duration of five (5) minutes per concentration.
Test compound stock solutions are prepared in dimethyl sulfoxide (DMSO) and stored frozen. Test compound concentrations are prepared fresh daily by diluting stock solutions into the external HEPES-buffered physiological saline solution described above. […] Each test compound formulation is sonicated (Model 2510/5510, Branson Ultrasonics, Danbury, Conn.), at ambient room temperature for at least 20 minutes to facilitate dissolution. In preparation for the recording session, a glass-lined 96-well compound plate is loaded with the appropriate amounts of test and control solutions, and placed in the plate well of PatchXpress® (Model 7000A, MDS Analytical Technologies, Sunnyvale, Calif.).
Data acquisition and analyses are performed using conventional software. Steady state is defined by the limiting constant rate of change with time (linear time dependence). The steady state before and after test compound application is used to calculate the percentage of current inhibited at each concentration.

Sequence of hERG potassium channel (Q12809 whole entry): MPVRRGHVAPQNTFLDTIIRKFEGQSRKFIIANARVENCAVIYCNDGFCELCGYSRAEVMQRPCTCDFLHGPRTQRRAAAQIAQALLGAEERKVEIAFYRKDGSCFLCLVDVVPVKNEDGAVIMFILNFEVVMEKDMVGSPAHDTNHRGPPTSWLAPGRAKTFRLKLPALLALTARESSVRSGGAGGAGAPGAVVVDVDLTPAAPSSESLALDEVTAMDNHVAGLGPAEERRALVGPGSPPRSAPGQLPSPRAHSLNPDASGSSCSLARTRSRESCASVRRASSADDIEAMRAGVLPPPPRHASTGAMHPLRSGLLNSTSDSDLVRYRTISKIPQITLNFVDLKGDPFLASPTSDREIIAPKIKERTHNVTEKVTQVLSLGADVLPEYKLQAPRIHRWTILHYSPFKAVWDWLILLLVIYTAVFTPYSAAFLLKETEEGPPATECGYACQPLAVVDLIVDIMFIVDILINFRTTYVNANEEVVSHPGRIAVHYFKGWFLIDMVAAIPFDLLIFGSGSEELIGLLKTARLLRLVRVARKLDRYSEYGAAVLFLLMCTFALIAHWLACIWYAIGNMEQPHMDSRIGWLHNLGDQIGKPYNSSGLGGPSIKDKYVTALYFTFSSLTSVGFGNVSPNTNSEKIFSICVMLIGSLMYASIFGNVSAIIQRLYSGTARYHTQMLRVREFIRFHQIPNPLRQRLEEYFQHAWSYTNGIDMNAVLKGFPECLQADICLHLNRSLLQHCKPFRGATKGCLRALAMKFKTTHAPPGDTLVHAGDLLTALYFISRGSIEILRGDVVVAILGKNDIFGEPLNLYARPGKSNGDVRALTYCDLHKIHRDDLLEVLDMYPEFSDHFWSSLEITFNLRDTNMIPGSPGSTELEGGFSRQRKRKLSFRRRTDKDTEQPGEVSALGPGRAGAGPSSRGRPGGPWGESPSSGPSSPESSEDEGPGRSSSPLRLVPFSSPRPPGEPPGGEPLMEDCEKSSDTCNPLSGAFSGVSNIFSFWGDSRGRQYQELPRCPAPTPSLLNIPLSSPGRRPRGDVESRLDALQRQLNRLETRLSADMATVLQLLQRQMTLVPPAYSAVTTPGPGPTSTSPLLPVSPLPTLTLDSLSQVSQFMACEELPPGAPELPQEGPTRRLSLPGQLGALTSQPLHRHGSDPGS
T1 sequence (Q13936 whole entry): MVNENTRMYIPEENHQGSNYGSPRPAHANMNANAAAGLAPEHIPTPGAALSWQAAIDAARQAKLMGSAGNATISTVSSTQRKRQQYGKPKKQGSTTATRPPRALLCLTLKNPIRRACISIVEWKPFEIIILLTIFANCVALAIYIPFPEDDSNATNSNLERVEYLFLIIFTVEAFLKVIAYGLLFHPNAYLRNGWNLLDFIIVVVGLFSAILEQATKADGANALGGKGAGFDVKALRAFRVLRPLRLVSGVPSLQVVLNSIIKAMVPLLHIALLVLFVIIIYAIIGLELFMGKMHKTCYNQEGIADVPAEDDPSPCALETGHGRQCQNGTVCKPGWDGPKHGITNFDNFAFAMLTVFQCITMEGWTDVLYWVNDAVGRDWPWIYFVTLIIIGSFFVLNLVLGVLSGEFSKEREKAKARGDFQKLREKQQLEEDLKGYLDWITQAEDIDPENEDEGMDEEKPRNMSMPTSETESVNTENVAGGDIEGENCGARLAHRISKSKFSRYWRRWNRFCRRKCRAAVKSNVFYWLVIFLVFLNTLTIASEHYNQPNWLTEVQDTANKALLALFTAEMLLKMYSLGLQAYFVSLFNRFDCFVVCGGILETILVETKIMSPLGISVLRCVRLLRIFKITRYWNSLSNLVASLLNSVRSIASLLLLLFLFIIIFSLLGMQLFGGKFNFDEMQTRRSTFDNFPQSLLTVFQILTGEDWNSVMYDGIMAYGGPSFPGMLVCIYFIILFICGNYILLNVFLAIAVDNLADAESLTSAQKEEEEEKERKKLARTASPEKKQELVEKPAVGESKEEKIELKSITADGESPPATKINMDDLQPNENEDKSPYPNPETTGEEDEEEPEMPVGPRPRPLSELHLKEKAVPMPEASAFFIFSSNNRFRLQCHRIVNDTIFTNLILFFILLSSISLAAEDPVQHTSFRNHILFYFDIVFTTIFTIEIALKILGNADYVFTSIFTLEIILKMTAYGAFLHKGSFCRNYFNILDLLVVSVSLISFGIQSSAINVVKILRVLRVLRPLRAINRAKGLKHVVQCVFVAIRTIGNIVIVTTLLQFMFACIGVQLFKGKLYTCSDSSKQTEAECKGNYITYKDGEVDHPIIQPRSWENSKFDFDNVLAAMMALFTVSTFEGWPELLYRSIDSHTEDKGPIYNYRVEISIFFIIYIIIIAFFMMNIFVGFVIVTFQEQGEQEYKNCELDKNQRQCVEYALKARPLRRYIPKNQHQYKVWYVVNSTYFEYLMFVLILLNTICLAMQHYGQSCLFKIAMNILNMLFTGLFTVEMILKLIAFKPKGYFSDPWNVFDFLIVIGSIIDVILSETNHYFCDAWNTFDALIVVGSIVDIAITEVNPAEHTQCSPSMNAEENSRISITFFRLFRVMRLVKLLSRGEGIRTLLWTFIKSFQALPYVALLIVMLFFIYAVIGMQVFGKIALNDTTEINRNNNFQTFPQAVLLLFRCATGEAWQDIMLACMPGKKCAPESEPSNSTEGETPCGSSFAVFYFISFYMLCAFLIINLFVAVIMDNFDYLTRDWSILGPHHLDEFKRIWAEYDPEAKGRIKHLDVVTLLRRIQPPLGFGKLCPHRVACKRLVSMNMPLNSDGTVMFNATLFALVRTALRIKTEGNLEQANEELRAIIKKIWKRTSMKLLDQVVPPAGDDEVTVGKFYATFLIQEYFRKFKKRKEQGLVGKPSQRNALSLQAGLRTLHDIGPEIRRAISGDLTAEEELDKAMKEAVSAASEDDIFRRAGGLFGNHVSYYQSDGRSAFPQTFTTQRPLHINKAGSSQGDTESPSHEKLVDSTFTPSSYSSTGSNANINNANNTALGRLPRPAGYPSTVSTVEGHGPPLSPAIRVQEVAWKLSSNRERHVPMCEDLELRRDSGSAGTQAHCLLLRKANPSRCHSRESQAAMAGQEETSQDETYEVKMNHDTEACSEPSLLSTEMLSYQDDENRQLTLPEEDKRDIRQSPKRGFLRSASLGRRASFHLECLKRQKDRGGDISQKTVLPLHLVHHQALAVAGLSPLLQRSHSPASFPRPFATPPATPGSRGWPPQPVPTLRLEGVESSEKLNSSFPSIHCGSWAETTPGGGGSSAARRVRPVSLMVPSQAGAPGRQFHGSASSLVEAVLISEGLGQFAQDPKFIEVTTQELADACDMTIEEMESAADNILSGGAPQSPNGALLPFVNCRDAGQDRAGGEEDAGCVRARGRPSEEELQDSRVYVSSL
T1 sequence (Q08289 whole entry partner): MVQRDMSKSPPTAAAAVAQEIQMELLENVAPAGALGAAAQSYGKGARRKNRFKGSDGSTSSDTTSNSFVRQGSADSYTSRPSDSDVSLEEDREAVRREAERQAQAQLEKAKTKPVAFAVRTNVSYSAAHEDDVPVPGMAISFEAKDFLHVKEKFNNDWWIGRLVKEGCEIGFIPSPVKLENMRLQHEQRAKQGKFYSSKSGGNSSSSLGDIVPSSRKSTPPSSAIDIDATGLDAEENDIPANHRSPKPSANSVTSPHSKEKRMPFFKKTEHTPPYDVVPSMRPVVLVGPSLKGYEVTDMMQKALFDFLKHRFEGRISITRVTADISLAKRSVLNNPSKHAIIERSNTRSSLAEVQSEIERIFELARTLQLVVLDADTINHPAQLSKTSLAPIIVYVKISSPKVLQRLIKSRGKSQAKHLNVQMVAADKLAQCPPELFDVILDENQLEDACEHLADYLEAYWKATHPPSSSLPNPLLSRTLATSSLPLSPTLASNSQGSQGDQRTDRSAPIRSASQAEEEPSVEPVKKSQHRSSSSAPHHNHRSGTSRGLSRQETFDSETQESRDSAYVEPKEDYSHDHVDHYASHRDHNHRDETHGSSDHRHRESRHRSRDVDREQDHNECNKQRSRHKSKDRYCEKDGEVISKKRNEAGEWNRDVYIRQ

In the case of `CC1=C(C(=O)OCc2ccccc2)C(c2ccc(N(C)C)cc2[N+](=O)[O-])n2nnnc2N1` (centres unmarked) [PT-409, benzyl 7-(4-(dimethylamino)-2-nitrophenyl)-5-methyl-4,7-dihydrotetrazolo[1,5-a]pyrimidine-6-carboxylate], the “hERG Patch Clamp hERG % blk (1 μM test cmpd)” value (hERG potassium channel) is reported as 27%, the “hERG Patch Clamp hERG % blk (10 μM test cmpd)” value (hERG potassium channel) is reported as 78.5% and the “ICaL Patch Clamp Assay 1 μM % blk” value [1] is reported as 2.7%. For the same compound, the “ICaL Patch Clamp Assay 10 μM % blk” value [1] was 19.9%.

`CCOC(=O)C1=C(C)NC(C)=C(C(=O)OCC)C1c1ccccc1Br` [PT-430, diethyl 4-(2-bromophenyl)-2,6-dimethyl-1,4-dihydropyridine-3,5-dicarboxylate] was tested, and the “hERG Patch Clamp hERG % blk (1 μM test cmpd)” value (hERG potassium channel) was 10%, the “hERG Patch Clamp hERG % blk (10 μM test cmpd)” value (hERG potassium channel) was 21.5% and the “ICaL Patch Clamp Assay 1 μM % blk” value [1] was 91.8%. The “ICaL Patch Clamp Assay 10 μM % blk” value [1] was 98.6%.
